Patent US20080312336A1, “Preventive and/or Therapeutic Agent for Diabetic Vascular Disorder and Respiratory Disorder” (priority 2005, published 2008)

Experiments:
[1] = tested on: vascular smooth muscles from the STZ-induced diabetic rat model; assay: U-46619-induced contraction of isolated thoracic aorta rings from STZ-induced diabetic rats after four weeks of dosing; format: in vivo, SD rats; parameters: effective dose for inducing 50% muscle contraction (ED50): unit not given here; settings: for effective dose for inducing 50% muscle contraction (ED50): ED50 of U-46619
Procedure: Eight-week-old male SD rats were divided into four groups, three of which were intraperitoneally administered with 50 mg/kg of streptozotocin (hereafter, also referred to as STZ) to induce diabetes. Of this diabetic model, two groups were used as the test substance-administered groups, and were intraperitoneally administered with 2 mg/kg or 8 mg/kg of “compound 24” synthesized in Preparation Example […] once daily for four weeks continuously. The diabetic model which was not administered with “compound 24” was used as the control group, and rats which were administered with neither STZ nor “compound 24” were used as the non-treated group.
After four weeks from the start of administration, thoracic aorta were isolated to form ring specimens (endothelium (+) specimens) of about 2 mm in length. The vascular endothelia were further removed from these specimens to form endothelium (−) specimens. These specimens were suspended in an organ bath, and the contractile response to cumulative administration of 9,11-dideoxy-9α,11α-methanoepoxy-prosta-5Z,13E-dien-1-oic acid (CAS Registry No.: 56985-40-1, hereafter also referred to as U-46619), which is a thromboxane A2 derivative, was observed. The muscle contractile force was measured with various cumulative concentrations of U-46619 within the range of 10^−9.0 to 10^−6.5 M, to obtain the maximum muscle contractile force (Emax (g/mg tissue)) and the effective dose for inducing 50% muscle contraction (ED50 (M)).

[2] = tested on: tracheal smooth muscles from the STZ-induced diabetic rat model; assay: Carbachol-induced contraction of isolated tracheal smooth muscle from STZ-induced diabetic rats after four weeks of dosing; format: in vivo, SD rats; settings: for effective dose for inducing 50% muscle contraction (ED50): ED50 of carbachol; for effective dose for inducing 50% muscle contraction (ED50) / maximum muscle contractile force (Emax): mean±SD, n=6; for maximum muscle contractile force (Emax): carbachol
Procedure: Eight-week-old male SD rats were divided into four groups, three of which were intraperitoneally administered with 50 mg/kg of streptozotocin (hereafter, also referred to as STZ) to induce diabetes. Of this diabetic model, two groups were used as the test substance-administered groups, and were intraperitoneally administered with 2 mg/kg or 8 mg/kg of the compound, 3-(15-hydroxypentadecyl)-2,4,4-trimethyl-2-cyclohexen-1-one (hereunder, referred to as “compound 24”) synthesized in Preparation Example 24, once daily for four weeks continuously. The diabetic model which was not administered with “compound 24” was used as the control group, and rats administered with neither STZ nor “compound 24” were used as the non-treated group.
After four weeks from the start of administration, tracheae were isolated to prepare specimens (mucosal epithelium (+) specimens). The mucosal epithelia were further removed from these specimens to form mucosal epithelium (−) specimens. These specimens were suspended in an organ bath, and the contractile response to cumulative administration of carbachol (CAS Registry No.: 51-83-2) was observed. The muscle contractile force was measured with various cumulative concentrations of carbachol within the range of 10^−8.0 to 10^−4.5 M, to obtain the maximum muscle contractile force (Emax (g/mg tissue)) and the effective dose for inducing 50% muscle contraction (ED50 (M)).

rat isolated trachea = settings: streptozotocin-induced diabetic rats and normal rats; cited from earlier work
[3] = tested on: tracheal muscles isolated from streptozotocin-induced diabetic rats; settings: cited from earlier work
[4] = tested on: tracheal specimens contracted with carbachol; settings: cited from earlier work; for relaxation of specimens contracted with carbachol: carbachol 10^−6 mol/l; for response of diabetic rat specimens compared with control animals: specimens six weeks after 65 mg/kg i.v. streptozotocin
[5] = mucosal epithelium (+) specimens, 2 mg/kg i.p. once daily for four weeks
[6] = mucosal epithelium (+) specimens, 8 mg/kg i.p. once daily for four weeks
[7] = mucosal epithelium (−) specimens, 2 mg/kg i.p. once daily for four weeks
[8] = mucosal epithelium (−) specimens, 8 mg/kg i.p. once daily for four weeks

O=C1C=C(CCCCCCCCCCCCCO)CCC1 [Preparation Example 4, 3-(13-hydroxytridecyl)-2-cyclohexen-1-one]
melting point: 42 to 43 °C

O=C1C=C(CCCCCCCCCCCO)CCC1 [Preparation Example 2, 3-(11-hydroxyundecyl)-2-cyclohexen-1-one]
melting point: 34 to 35 °C

CC1=C(CCCCCCCCCCCCCCCO)C(C)(C)CCC1=O [Compound 24, 3-(15-hydroxypentadecyl)-2,4,4-trimethyl-2-cyclohexen-1-one]
effect on Emax increase, endothelium (−) specimens ([1]; 2 mg/kg or 8 mg/kg, compared to the control group): significant inhibition of the Emax increase
effect on Emax increase, endothelium (+) specimens ([1]; 8 mg/kg, compared to the control group): significant inhibition of the Emax increase
effective dose for inducing 50% muscle contraction (ED50) ([1]; endothelium (+) specimens, 2 mg/kg i.p. once daily for four weeks, mean±SD, n=6): 8.077 ± 0.037 ×10^−9
effective dose for inducing 50% muscle contraction (ED50) ([1]; endothelium (+) specimens, 8 mg/kg i.p. once daily for four weeks, mean±SD, n=6): 8.102 ± 0.055 ×10^−9
effective dose for inducing 50% muscle contraction (ED50) ([1]; endothelium (−) specimens, 2 mg/kg i.p. once daily for four weeks, mean±SD, n=6): 8.149 ± 0.030 ×10^−9
effective dose for inducing 50% muscle contraction (ED50) ([1]; endothelium (−) specimens, 8 mg/kg i.p. once daily for four weeks, mean±SD, n=6): 8.194 ± 0.114 ×10^−9
overall effect on vascular smooth muscle contraction ([1]; STZ-induced diabetic rats): vascular smooth muscle contraction-inhibiting effect
effect on ED50 of U-46619 ([1]; all groups): no difference in ED50 among the groups
effect on Emax increase of U-46619-induced vascular smooth muscle contraction ([1]; both endothelium (+) and (−) specimens, 2 and 8 mg/kg, vs. control group): inhibited the Emax increase in a dose-dependent manner
maximum muscle contractile force (Emax) ([1]; endothelium (+) specimens, U-46619, 2 mg/kg i.p. once daily for four weeks, mean±SD, n=6): 0.576 ± 0.082 g/mg tissue
effect on ED50 decrease of carbachol-induced tracheal smooth muscle contraction ([2]; 2 and 8 mg/kg, vs. control group): inhibited the ED50 decrease in a dose-dependent manner
effective dose for inducing 50% muscle contraction (ED50) [2, 5]: 12.2 ± 2.3 ×10^−8 M
effective dose for inducing 50% muscle contraction (ED50) [2, 6]: 17.2 ± 5.3 ×10^−8 M
effective dose for inducing 50% muscle contraction (ED50) [2, 7]: 11.4 ± 3.1 ×10^−8 M
effective dose for inducing 50% muscle contraction (ED50) [2, 8]: 13.3 ± 4.2 ×10^−8 M
overall effect on tracheal smooth muscle contraction ([2]; STZ-induced diabetic rats): tracheal smooth muscle contraction-improving tendency
effect on Emax increase of carbachol-induced tracheal smooth muscle contraction ([2]; both mucosal epithelium (+) and (−) specimens, 2 and 8 mg/kg, vs. control group): tended to suppress the Emax increase concentration-dependently
maximum muscle contractile force (Emax) [2, 5]: 0.303 ± 0.047 g/mg tissue
maximum muscle contractile force (Emax) [2, 6]: 0.292 ± 0.029 g/mg tissue
maximum muscle contractile force (Emax) [2, 7]: 0.307 ± 0.036 g/mg tissue
maximum muscle contractile force (Emax) [2, 8]: 0.242 ± 0.019 g/mg tissue

NCCCC(=O)O [GABA, γ-aminobutyric acid]
effect on tracheal contraction induced by electrical stimulation (rat isolated trachea): inhibited

COC(=O)[C@@H](N)CCCNC(=N)N[N+](=O)[O-] [L-NAME, NG-nitro-L-arginine-methylester]
effect on electrical stimulation-induced contraction ([3]; normal rats and diabetic rats): enhanced the response in normal rats, but not in diabetic rats
effect on acetylcholine-induced contraction ([3]; tracheal muscles from streptozotocin-induced diabetic rats): not affected

O=C1C=C(CCCCCCCCCCCCCCO)CCC1 [Preparation Example 5, 3-(14-hydroxytetradecyl)-2-cyclohexen-1-one]
melting point: 44 to 45 °C

O=C1C=C(CCCCCCCCCCCCO)CCC1 [Preparation Example 3, 3-(12-hydroxydodecyl)-2-cyclohexen-1-one]
melting point: 35 to 36 °C

COc1ccc(C2CNC(=O)C2)cc1OC1CCCC1 (centres unmarked) [rolipram]
relaxation of specimens contracted with carbachol [4]: concentration-dependent relaxation
concentration at which the effect was observed ([4]; control animal specimens): observed at the lowest concentration
response of diabetic rat specimens compared with control animals [4]: no significant difference

Nc1cc(-c2ccncc2)c[nH]c1=O [aminone]
relaxation of specimens contracted with carbachol [4]: concentration-dependent relaxation
response of diabetic rat specimens compared with control animals [4]: higher response

Cn1c(=O)c2[nH]cnc2n(C)c1=O [theophylline]
relaxation of specimens contracted with carbachol [4]: concentration-dependent relaxation
response of diabetic rat specimens compared with control animals [4]: no significant difference
